Measurements: patent US6875761B2 (Eisai Co., Ltd., priority 1997, dated 2005)
pKi: −log10 of the molar value. Counter-ions that a name gives are not always drawn.

What was measured:
serotonin 1A receptor = target: T1, serotonin 1A receptor (Rattus norvegicus, UniProt P19327); experiment: Binding test on [3H] 8-hydroxy-dipropylaminotetralin, hippocampus receptor fraction; set-up: species or system SD rats; conditions: rat hippocampus receptor fraction, 0.5 nM [3H] 8-OH-DPAT, room temperature 30 min; read-out: 5HT1
T1 construct: To the receptor fraction of the hippocampus were added a test compound and 0.5 nM of [^3H]; 8-hydroxy-dipropylaminotetralin; from tissue; host or cells: rat hippocampus membrane fraction
T1 sequence (P19327 1-422): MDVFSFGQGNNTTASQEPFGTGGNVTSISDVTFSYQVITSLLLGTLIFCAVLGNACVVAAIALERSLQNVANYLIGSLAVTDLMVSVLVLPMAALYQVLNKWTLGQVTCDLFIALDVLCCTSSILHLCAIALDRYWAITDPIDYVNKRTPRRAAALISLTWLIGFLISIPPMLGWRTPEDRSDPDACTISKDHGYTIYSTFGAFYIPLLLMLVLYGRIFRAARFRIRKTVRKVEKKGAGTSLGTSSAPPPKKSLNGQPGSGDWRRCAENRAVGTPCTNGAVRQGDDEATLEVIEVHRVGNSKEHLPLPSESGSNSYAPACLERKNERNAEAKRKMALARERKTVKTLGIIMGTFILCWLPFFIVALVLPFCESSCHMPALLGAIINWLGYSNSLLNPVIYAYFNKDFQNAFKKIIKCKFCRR

serotonin 2 receptor = target: T2, serotonin 2 receptor (Rattus norvegicus, UniProt P14842); experiment: Binding test on [3H] ketanserin, cerebral cortex receptor fraction; set-up: species or system SD rats; conditions: 0.3 nM [3H] ketanserin, 37° C. 15 min, read-out: 5HT2
T2 construct: To the receptor fraction of the cerebral cortex were added a test compound and 0.3 nM of [^3H] ketanserin; from tissue; host or cells: rat cerebral cortex membrane fraction
T2 sequence (P14842 whole entry): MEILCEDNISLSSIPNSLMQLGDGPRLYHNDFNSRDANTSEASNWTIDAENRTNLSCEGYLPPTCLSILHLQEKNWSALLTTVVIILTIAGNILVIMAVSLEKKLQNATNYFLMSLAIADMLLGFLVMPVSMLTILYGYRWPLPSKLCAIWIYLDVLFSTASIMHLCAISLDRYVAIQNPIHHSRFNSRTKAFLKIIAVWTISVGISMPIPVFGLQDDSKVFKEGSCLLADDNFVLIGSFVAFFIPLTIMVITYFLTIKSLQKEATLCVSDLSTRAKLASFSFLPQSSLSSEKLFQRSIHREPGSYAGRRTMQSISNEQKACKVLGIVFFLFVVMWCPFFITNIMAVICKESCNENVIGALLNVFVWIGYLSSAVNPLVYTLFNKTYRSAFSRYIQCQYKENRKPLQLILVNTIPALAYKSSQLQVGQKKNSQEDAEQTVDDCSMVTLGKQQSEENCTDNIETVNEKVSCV

SMILES	pKi (serotonin 1A receptor)	pKi (serotonin 2 receptor)
CCCN(C)S(=O)(=O)c1ccc(-c2cc3ccccc3c(N3CCN(CC)CC3)n2)cc1 [Example 358, 1-(4-ethylpiperazin-1-yl)-3-[4-(N-methyl-N-propylsulfamoyl)phenyl]isoquinoline dihydrochloride]	8.19	7.72
CCN1CCN(c2nc(-c3ccc(S(=O)(=O)N(CC)CC)cc3)cc3ccccc23)CC1 [Example 359, 1-(4-ethylpiperazin-1-yl)-3-[4-(N,N-diethylsulfamoyl)phenyl]isoquinoline dihydrochloride]	8.21	8.49
CCN1CCN(c2nc(-c3ccc(S(=O)(=O)N(C)C)cc3)cc3ccccc23)CC1 [Example 362, 1-(4-ethylpiperazin-1-yl)-3-[4-(N,N-dimethylsulfamoyl)phenyl]isoquinoline dihydrochloride]	8.35	7.62
CCNC(=O)c1ccc(-c2cc3ccccc3c(N3CCN(CC)CC3)n2)cc1 [Example 364, 1-(4-ethylpiperazin-1-yl)-3-[4-(N-ethylcarbamoyl)phenyl]isoquinoline dihydrochloride]	7.66	8.41
CCN1CCN(c2nc(-c3ccc(C(=O)NC)cc3)cc3ccccc23)CC1 [Example 365, 1-(4-ethylpiperazin-1-yl)-3-[4-(N-methylcarbamoyl)phenyl]isoquinoline dihydrochloride]	7.58	8.00
CCN1CCN(c2nc(-c3ccc(OCCOC)c(F)c3)cc3ccccc23)CC1 [Example 367, 1-(4-ethylpiperazin-1-yl)-3-(3-fluoro-4-methoxyethoxyphenyl)isoquinoline dihydrochloride]	7.26	8.48
CCN1CCN(c2nc(-c3cc(F)c(OCCOC)c(F)c3)cc3ccccc23)CC1 [Example 368, 1-(4-ethylpiperazin-1-yl)-3-(3,5-difluoro-4-methoxyethoxyphenyl)isoquinoline dihydrochloride]	7.49	8.04
CCN1CCN(c2nc(-c3ccc(OCCO)c(F)c3)cc3ccccc23)CC1 [Example 369, 1-(4-ethylpiperazin-1-yl)-3-[3-fluoro-4-(2-hydroxyethoxy)phenyl]isoquinoline dihydrochloride]	7.55	8.60
CCN1CCN(c2nc(-c3cc(F)c(OCCO)c(F)c3)cc3ccccc23)CC1 [Example 370, 1-(4-ethylpiperazin-1-yl)-3-[3,5-difluoro-4-(2-hydroxyethoxy)phenyl]isoquinoline]	7.62	8.47
CCN1CCN(c2nc(-c3cc(F)c(OCCF)c(F)c3)cc3ccccc23)CC1 [Example 371, 1-(4-ethylpiperazin-1-yl)-3-[3,5-difluoro-4-(2-fluoroethoxy)phenyl]isoquinoline dihydrochloride]	7.39	8.37
CCN1CCN(c2nc(Sc3ccccc3)cc3ccccc23)CC1 [Example 374, 1-(4-ethylpiperazin-1-yl)-3-(phenylthio)isoquinoline oxalate]	7.35	7.61
CCN1CCN(c2nc(-c3ccc(CC(C)=O)cc3)cc3ccccc23)CC1 [Example 375, 1-(4-ethylpiperazin-1-yl)-3-[4-(2-oxopropyl)phenyl]isoquinoline dihydrochloride]	7.52	8.12
CCN1CCN(c2nc(-c3ccc(CC(C)O)cc3)cc3ccccc23)CC1 (stereo not drawn) [Example 376, 1-(4-ethylpiperazin-1-yl)-3-[4-(2-hydroxypropyl)phenyl]isoquinoline oxalate]	7.71	8.20
CCN1CCN(c2nc(-c3ccc(CC(C)(C)O)cc3)cc3ccccc23)CC1 [Example 377, 1-(4-Ethylpiperazin-1-yl)-3-[4-(2-Hydroxy-2-Methylpropyl)Phenyl]Isoquinoline Oxalate]	7.55	7.78
CCN1CCN(c2nc(Sc3ccccn3)cc3ccccc23)CC1 [Example 378, 1-(4-Ethylpiperazin-1-yl)-3-(2-Pyridylthio)Isoquinoline Oxalate]	7.37	7.02
CCC/C(=N\O)c1ccc(-c2cc3ccccc3c(N3CCN(CC)CC3)n2)cc1 [Example 380, 1-(4-Ethylpiperazin-1-yl)-3-[4-(1-Hydroxyiminobutyl)Phenyl]Isoquinoline]	7.51	7.64
CCCN(C)C(=O)c1ccc(-c2cc3ccccc3c(N3CCN(CC)CC3)n2)cc1 [Example 381]	7.95	7.56
CCN1CCN(c2nc(-c3ccc(C(C)CCO)cc3)cc3ccccc23)CC1 (stereo not drawn) [Example 383, 1-(4-Ethylpiperazin-1-yl)-3-[4-(3-Hydroxy-1-Methylpropyl)Phenyl]Isoquinoline Oxalate]	8.13	8.47

These reach a higher pKi (serotonin 1A receptor). Values come first.

pKi (serotonin 1A receptor)	pKi (serotonin 2 receptor)	SMILES
8.42	8.14	CCN1CCN(c2nc(-c3ccc(S(=O)(=O)CC)cc3)cc3ccccc23)CC1 [Example 366, 1-(4-ethylpiperazin-1-yl)-3-[4-(ethylsulfonyl)phenyl]isoquinoline dihydrochloride]
8.46	8.59	CCN1CCN(c2nc(-c3ccc(S(=O)(=O)NC)cc3)cc3ccccc23)CC1 [Example 361, 1-(4-ethylpiperazin-1-yl)-3-[4-(N-methylsulfamoyl)phenyl]isoquinoline dihydrochloride]
8.46	9.21	CCN1CCN(c2nc(-c3ccc(S(=O)(=O)NC4CC4)cc3)cc3ccccc23)CC1 [Example 363, 1-(4-ethylpiperazin-1-yl)-3-[4-(N-cyclopropylsulfamoyl)phenyl]isoquinoline dihydrochloride]
8.52	8.89	CCN1CCN(c2nc(-c3ccc(S(=O)(=O)NCCOC)cc3)cc3ccccc23)CC1 [Example 354, 1-(4-ethylpiperazin-1-yl)-3-{4-[N-(2-methoxyethyl)sulfamoyl]phenyl}isoquinoline dihydrochloride]
8.55	9.24	CCNS(=O)(=O)c1ccc(-c2cc3ccccc3c(N3CCN(CC)CC3)n2)cc1 [Example 357, 1-(4-ethylpiperazin-1-yl)-3-[4-(N-ethylsulfamoyl)phenyl]isoquinoline dihydrochloride]
8.59	8.31	CCN1CCN(c2nc(-c3ccc(S(=O)(=O)CCCF)cc3)cc3ccccc23)CC1 [Example 355, 1-(4-ethylpiperazin-1-yl)-3-[4-(3-fluoropropyl)sulfonylphenyl]isoquinoline dihydrochloride]
8.68	7.62	CCN1CCN(c2nc(-c3ccc(S(=O)(=O)N4CCCC4)cc3)cc3ccccc23)CC1 [Example 356, 1-(4-ethylpiperazin-1-yl)-3-[4-(pyrrolidin-1-yl)sulfonylphenyl]isoquinoline dihydrochloride]
8.70	8.82	CCC(C)NS(=O)(=O)c1ccc(-c2cc3ccccc3c(N3CCN(CC)CC3)n2)cc1 (stereo not drawn) [Example 360, 1-(4-ethylpiperazin-1-yl)-3-{4-[N-(1-methylpropyl)sulfamoyl]phenyl}isoquinoline dihydrochloride]
8.96	9.62	CCCNS(=O)(=O)c1ccc(-c2cc3ccccc3c(N3CCN(CC)CC3)n2)cc1 [Example 353, 1-(4-ethylpiperazin-1-yl)-3-[4-(N-propylsulfamoyl)phenyl]isoquinoline dihydrochloride]
